Tests used:
Format in all cases: in vivo
[1] = test system: Phaedon cochleariae; assay: Phaedon cochleariae spray test (PHAECO), Chinese cabbage leaf discs; conditions: for pest or weed control at 100 g/ha: 7 days (7 dat), read-out: efficacy
Description: (§1) [table] To produce a suitable active ingredient formulation, 1 part by weight of active ingredient is dissolved with the specified parts by weight of solvent and made up to the desired concentration with water containing an emulsifier concentration of 1000 ppm. To produce further test concentrations, the formulation is diluted with emulsifier-containing water. Discs of Chinese cabbage leaves (Brassica pekinensis) are sprayed with an active ingredient formulation of the desired concentration and, after drying, populated with larvae of the mustard beetle (Phaedon cochleariae). After 7 days, the efficacy in % is determined. 100% means that all the beetle larvae have been killed; 0% means that no beetle larvae have been killed. [table] To produce an appropriate active ingredient formulation, 1 part by weight of active ingredient is dissolved with the stated parts by weight of solvent and made up with water containing an emulsifier concentration of 1000 ppm until the desired concentration is attained. For production of further test concentrations, the mixture is diluted with emulsifier-containing water. Discs of chinese cabbage leaves (Brassica pekinensis) are sprayed with an active ingredient formulation of the desired concentration and, after drying, populated with larvae of the mustard beetle (Phaedon cochleariae). After the desired time, the efficacy in % is determined. 100% means that all beetle larvae have been killed; 0% means that no beetle larvae have been killed.

[2] = test system: Phaedon cochleariae; assay: Phaedon cochleariae spray test (PHAECO S), cabbage leaves; conditions: 20 ppm, 7 dat
Description: [table] To produce an appropriate active ingredient formulation, 1 part by weight of active ingredient is dissolved with the specified parts by weight of solvent and made up with water containing an emulsifier concentration of 1000 ppm until the desired concentration is attained. To produce further test concentrations, the mixture is diluted with emulsifier-containing water. If addition of ammonium salts or/and penetrants is required, these are each added to the preparation solution in a concentration of 1000 ppm. Cabbage leaves (Brassica oleracea) are sprayed with an active ingredient formulation of the desired concentration and populated with larvae of the mustard beetle (Phaedon cochleariae). After the desired time, the kill in % is determined. 100% means that all beetle larvae have been killed; 0% means that no beetle larvae have been killed.

[3] = test system: Lucilia cuprina; assay: Lucilia cuprina test; conditions: 48 h, L1 larvae, after 2 days, read-out: efficacy (kill)
Description: Solvent: dimethyl sulfoxide To produce a suitable active ingredient formulation, 10 mg of active ingredient are mixed with 0.5 ml of dimethyl sulfoxide, and the concentrate is diluted with water to the desired concentration. About 20 L1 larvae of the Australian sheep blowfly (Lucilia cuprina) are transferred into a test vessel containing minced horsemeat and the active ingredient formulation of the desired concentration. After 2 days, the kill in % is determined. 100% means that all the larvae have been killed; 0% means that no larvae have been killed.

[4] = test system: Meloidogyne incognita; assay: Meloidogyne incognita test (MELGIN); conditions: 20 ppm, 14 days (14 dat)
Description: [table] To produce a suitable active ingredient formulation, 1 part by weight of active ingredient is mixed with the stated amount of solvent and the concentrate is diluted to the desired concentration with water. Vessels are filled with sand, active ingredient solution, an egg/larvae suspension of the southern root-knot nematode (Meloidogyne incognita) and lettuce seeds. The lettuce seeds germinate and the plants develop. The galls develop on the roots. After 14 days, the nematicidal efficacy in % is determined by the formation of galls. 100% means that no galls were found; 0% means that the number of galls on the treated plants corresponds to the untreated control. [table] To produce an appropriate active ingredient formulation, 1 part by weight of active ingredient is mixed with the specified amount of solvent and the concentrate is diluted to the desired concentration with water. Vessels are filled with sand, active ingredient solution, an egg/larvae suspension of the southern root-knot nematode (Meloidogyne incognita) and lettuce seeds. The lettuce seeds germinate and the plants develop. The root-knots develop on the roots. After the desired time, the nematicidal effect is determined from the formation of root-knots in %. 100% means that no root-knots were found; 0% means that the number of root-knots on the treated plants corresponds to that on the untreated control.

[5] = test system: Nilaparvata lugens; assay: Nilaparvata lugens spray test (NILALU); conditions: 4 dat; for % efficacy / Emax at 20 g/ha: 20 g/ha
Description: (§2) [table] To produce an appropriate active ingredient formulation, 1 part by weight of active ingredient is dissolved with the specified parts by weight of solvent and made up with water containing an emulsifier concentration of 1000 ppm until the desired concentration is attained. To produce further test concentrations, the mixture is diluted with emulsifier-containing water. If addition of ammonium salts or/and penetrants is required, these are each added to the preparation solution in a concentration of 1000 ppm. Rice plants (Oryza sativa) are sprayed with an active ingredient formulation of the desired concentration and then populated with larvae of the brown planthopper (Nilaparvata lugens). After the desired time, the efficacy in % is determined. 100% means that all planthoppers have been killed; 0% means that no planthoppers have been killed.

[6] = test system: Myzus persicae; assay: Myzus persicae spray test (MYZUPE), Chinese cabbage leaf discs; conditions: Myzus persicae, foliar, 120 h; for pest or weed control at 100 g/ha / pest or weed control at 20 g/ha: 5 days (5 dat), read-out: efficacy
Description: as §1, with “pekinensis) infested by all stages of the green peach aphid (Myzus persicae)” for “pekinensis)”, “concentration.” for “concentration and, after drying, populated with larvae of the mustard beetle (Phaedon cochleariae).”, “5” for “7”, “aphids” for “beetle larvae”

[7] = test system: Myzus persicae; assay: Myzus persicae oral test; conditions: 120 h, after 5 days, read-out: efficacy
Description: [table] To produce a suitable active ingredient formulation, 1 part by weight of active ingredient is dissolved with the stated parts by weight of solvent and made up to the desired concentration with water. 50 μl of the active ingredient preparation are transferred into microtitre plates and made up to a final volume of 200 μl with 150 μl of IPL41 insect medium (33%+15% sugar). Subsequently, the plates are sealed with parafilm, which a mixed population of green peach aphids (Myzus persicae) within a second microtitre plate is able to puncture and imbibe the solution. After 5 days, the efficacy in % is determined. 100% means that all the aphids have been killed; 0% means that no aphids have been killed.

[8] = test system: Nezara viridula; assay: Nezara viridula spray test (NEZARA / NEZAVI); conditions: 4 dat; for % efficacy: 500 g/ha
Description: as §2, with “Barley” for “Rice”, “(Hordeum vulgare) infected with larvae of the southern green shield bug (Nezara viridula)” for “(Oryza sativa)”, “concentration.” for “concentration and then populated with larvae of the brown planthopper (Nilaparvata lugens).”, “bugs” for “planthoppers”

[9] = test system: Myzus persicae; assay: Myzus persicae spray test (MYZUPE S), bell pepper plants; conditions: 144 h, 4 ppm, 6 dat, read-out: % efficacy
Description: [table] To produce an appropriate active ingredient formulation, 1 part by weight of active ingredient is dissolved with the specified parts by weight of solvent and made up with water containing an emulsifier concentration of 1000 ppm until the desired concentration is attained. To produce further test concentrations, the mixture is diluted with emulsifier-containing water. If addition of ammonium salts or/and penetrants is required, these are each added to the preparation solution in a concentration of 1000 ppm. Bell pepper plants (Capsicum annuum) severely infested by the green peach aphid (Myzus persicae) are treated by spraying with the active ingredient formulation in the desired concentration. After the desired time, the kill in % is determined. 100% means that all the animals have been killed; 0% means that no animals have been killed.

[10] = test system: Aphis gossypii; assay: Aphis gossypii spray test (APHIGO), cotton plants; conditions: Aphis gossypii, 144 h, 6 dat, read-out: % efficacy
Description: [table] To produce an appropriate active ingredient formulation, 1 part by weight of active ingredient is dissolved with the specified parts by weight of solvent and made up with water containing an emulsifier concentration of 1000 ppm until the desired concentration is attained. To produce further test concentrations, the mixture is diluted with emulsifier-containing water. If addition of ammonium salts or/and penetrants is required, these are each added to the preparation solution in a concentration of 1000 ppm. Cotton plants (Gossypium hirsutum) severely infested by the cotton aphid (Aphis gossypii) are sprayed with an active ingredient formulation of the desired concentration. After the desired time, the kill in % is determined. 100% means that all aphids have been killed; 0% means that no aphids have been killed.

[11] = test system: Tetranychus urticae; assay: Tetranychus urticae spray test, OP-resistant (TETRUR); conditions: Tetranychus urticae, 144 h; TETRUR, 100 g/ha, 6 dat; read-out: % efficacy
Description: [table] To produce a suitable active ingredient formulation, 1 part by weight of active ingredient is dissolved with the specified parts by weight of solvent and made up to the desired concentration with water containing an emulsifier concentration of 1000 ppm. To produce further test concentrations, the formulation is diluted with emulsifier-containing water. Discs of bean leaves (Phaseolus vulgaris) infested with all stages of the greenhouse red spider mite (Tetranychus urticae) are sprayed with an active ingredient formulation of the desired concentration. After 6 days, the efficacy in % is determined. 100% means that all the spider mites have been killed; 0% means that no spider mites have been killed.

[12] = test system: Myzus persicae; assay: Myzus persicae drench test (MYZUPE D), savoy cabbage plants; conditions: soil, 240 h, 10 dat, read-out: % efficacy
Description: [table] To produce an appropriate active ingredient formulation, 1 part by weight of active ingredient is mixed with the specified amounts of solvent and emulsifier and the concentrate is diluted to the desired concentration with water, it being necessary to take into account the volume of soil into which drenching is effected. It should be ensured that a concentration of 40 ppm of emulsifier in the soil is not exceeded. For production of further test concentrations, the mixture is diluted with water. Savoy cabbage plants (Brassica oleracea) in soil pots, infested by all stages of the green peach aphid (Myzus persicae), are drenched with an active ingredient formulation of the desired concentration. After the desired time, the efficacy in % is determined. 100% means that all the aphids have been killed; 0% means that no aphids have been killed.

[13] = Phaedon cochleariae, foliar, 168 h
[14] = Phaedon cochleariae, foliar, 168 h, PHAECO, 20 g/ha, 7 dat
[15] = Nilaparvata lugens, 96 h, read-out: % efficacy

For `CCS(=O)(=O)c1ccc(C(N)=O)nc1-c1nc2cc(C(F)(F)C(F)(F)F)nnc2n1C` [Example I-02], the “% efficacy” value ([1]; PHAECO, 0.8 g/ha, 7 dat) was 83%, the “% efficacy” value ([1]; PHAECO, 4 g/ha, 7 dat) was 100% and the pest or weed control at 100 g/ha [1, 13] was 100%. The “% efficacy” value [2] was 100%, the pest or weed control at 100 ppm [3] was 100% and the “efficacy (nematicidal, gall formation)” value [4] was 90%. For the same molecule, the “% efficacy” value [5] was 90%, the pest or weed control at 100 g/ha [6] was 100% and the pest or weed control at 0.8 ppm [7] was 100%. The “% efficacy” value [8] was 90%.

Molecule `CCS(=O)(=O)c1ccc(C(=O)NC2CC2)nc1-c1nc2cc(C(F)(F)C(F)(F)F)nnc2n1C` [Example I-03] has an Emax at 4 ppm [9] of 100%, an Emax at 4 ppm [10] of 95% and a pest or weed control at 100 g/ha [1, 13] of 100%. It also gave a percent efficacy (larval mortality) at a fixed application rate at 20 g/ha [1, 14] of 100%, a pest or weed control at 100 ppm [3] of 100% and an Emax at 20 g/ha [5, 15] of 80%. The Emax at 100 g/ha [5, 15] was 100%, the pest or weed control at 20 g/ha [6] was 90% and the pest or weed control at 100 g/ha [6] was 100%. For the same molecule, the pest or weed control at 0.8 ppm [7] was 100%.

For `CCS(=O)(=O)c1ccc(C(N)=O)nc1-c1nc2cc(C(F)(F)C(F)(F)F)nnc2n1C` [drawing 40, reference compound], the “% efficacy” value ([1]; PHAECO, 0.8 g/ha, 7 dat) was 0%, the “% efficacy” value ([1]; PHAECO, 4 g/ha, 7 dat) was 33% and the “% efficacy” value [2] was 0%. For the same molecule, the “efficacy (nematicidal, gall formation)” value [4] was 0%, the “% efficacy” value [5] was 50% and the “% efficacy” value [8] was 0%.

Molecule `CCS(=O)(=O)c1ccc(C(=O)NC2CC2)nc1-c1nc2cc(C(F)(F)F)nnc2n1C` [reference compound] has an Emax at 4 ppm [9] of 0%, an Emax at 4 ppm [10] of 0% and a pest or weed control at 100 g/ha [1, 13] of 33%. For the same molecule, the percent efficacy (larval mortality) at a fixed application rate at 20 g/ha [1, 14] was 33%, the Emax at 20 g/ha [5, 15] was 0% and the Emax at 100 g/ha [5, 15] was 0%. It also gave a pest or weed control at 20 g/ha [6] of 0%.

`CCS(=O)(=O)c1ccc(NC(=O)N(C)C)nc1-c1nc2cc(C(F)(F)F)nnc2n1C` [reference compound] gave an Emax at 4 ppm [10] of 15%, an Emax at 20 ppm ([2]; Phaedon cochleariae, 168 h, read-out: % efficacy) of 20% and an Emax at 100 g/ha [11] of 0%. For the same molecule, the Emax at 4 g/ha ([5]; Nilaparvata lugens, 96 h, 4 g/ha, read-out: % efficacy) was 0%, the Emax at 4 g/ha ([6]; MYZUPE, 4 g/ha, 5 dat, read-out: % efficacy) was 0% and the Emax at 4 g/ha ([8]; Nezara viridula, 96 h, 4 g/ha, read-out: % efficacy) was 0%.

For `CNC(=O)Nc1ccc(S(C)(=O)=O)c(-c2nc3cc(C(F)(F)F)nnc3n2C)n1` [reference compound], the Emax at 20 ppm ([10]; 20 ppm) was 0%, the pest or weed control at 100 g/ha [1, 13] was 33% and the Emax at 20 g/ha ([1]; Phaedon cochleariae, foliar, 168 h, PHAECO, 20 g/ha, 7 dat, read-out: % efficacy) was 0%. It also gave an Emax at 0.8 ppm ([12]; 0.8 ppm) of 0%, an Emax at 4 ppm ([12]; 4 ppm) of 0% and an Emax at 20 g/ha ([8]; Nezara viridula, 96 h, 20 g/ha, read-out: % efficacy) of 0%.

Source: patent publication US11089783B2, “2-(het)aryl-substituted fused heterocycle derivatives as pesticides” (Bayer Aktiengesellschaft, priority 2017, dated 2021)
